Results: ChEMBL document CHEMBL3390836, “Mannich- and LedererManasse-based analogues of the natural product S-(+)-curcuphenol as cancer proliferation and migration inhibitors” (Medchemcomm, 2012)

How the values were obtained:
Assay type in all cases: functional
NCI-H226 [1] = assay: Cytotoxicity against human NCI-H226 cells assessed as cell growth at 10^-4 M after 48 hrs by SRB assay relative to control; conditions: NCI-H226, 48 h, read-out: Activity
COLO 205 [2] = assay: Cytotoxicity against human COLO205 cells assessed as cell growth at 10^-4 M after 48 hrs by SRB assay relative to control; conditions: COLO 205, 48 h, read-out: Activity
SNB-75 [3] = assay: Cytotoxicity against human SNB75 cells after 48 hrs by SRB assay; conditions: SNB-75, 48 h
SK-MEL-2 [4] = assay: Cytotoxicity against human SK-MEL-2 cells after 48 hrs by SRB assay; conditions: SK-MEL-2, 48 h
[5] = Cytotoxicity against human UACC62 cells after 48 hrs by SRB assay; conditions: UACC-62, 48 h
[6] = Cytotoxicity against human NCI-ADR-RES cells after 48 hrs by SRB assay
ACHN = assay: Cytotoxicity against human ACHN cells after 48 hrs by SRB assay
[7] = Cytotoxicity against human HCT15 cells assessed as cell growth at 10^-8 M after 48 hrs by SRB assay relative to control; conditions: HCT-15, 48 h, read-out: Activity
HT-29 = assay: Cytotoxicity against human HT-29 cells assessed as cell growth at 10^-8 M after 48 hrs by SRB assay relative to control; conditions: HT-29, 48 h, read-out: Activity
[8] = Cytotoxicity against human UACC62 cells assessed as cell growth at 10^-4 M after 48 hrs by SRB assay relative to control; conditions: UACC-62, 48 h, read-out: Activity
[9] = Cytotoxicity against human NCI-ADR-RES cells assessed as cell growth at 10^-4 M after 48 hrs by SRB assay relative to control; conditions: read-out: Activity
A498 = assay: Cytotoxicity against human A498 cells assessed as cell growth at 10^-4 M after 48 hrs by SRB assay relative to control; conditions: A498, 48 h, read-out: Activity
MCF7 = assay: Cytotoxicity against human MCF7 cells assessed as cell growth at 10^-4 M after 48 hrs by SRB assay relative to control; conditions: MCF7, 48 h, read-out: Activity
MDA-MB-231 = assay: Cytotoxicity against human MDA-MB-231 cells assessed as cell growth at 10^-4 M after 48 hrs by SRB assay relative to control; conditions: MDA-MB-231, 48 h, read-out: Activity
[10] = Cytotoxicity against human Hs 578T cells assessed as cell growth at 10^-4 M after 48 hrs by SRB assay relative to control; conditions: read-out: Activity
786-0 = assay: Cytotoxicity against human 786-0 cells assessed as cell growth at 10^-8 M after 48 hrs by SRB assay relative to control; conditions: 786-0, 48 h, read-out: Activity
CAKI-1 [11] = assay: Cytotoxicity against human Caki1 cells assessed as cell growth at 10^-8 M after 48 hrs by SRB assay relative to control; conditions: CAKI-1, 48 h, read-out: Activity
[12] = Cytotoxicity against human UO31 cells assessed as cell growth at 10^-8 M after 48 hrs by SRB assay relative to control; conditions: UO-31, 48 h, read-out: Activity
[13] = Cytotoxicity against human EKVX cells assessed as cell growth at 10^-7 M after 48 hrs by SRB assay relative to control; conditions: read-out: Activity
NCI-H322M = assay: Cytotoxicity against human NCI-H322M cells assessed as cell growth at 10^-7 M after 48 hrs by SRB assay relative to control; conditions: read-out: Activity
NCI-H460 [14] = assay: Cytotoxicity against human NCI-H460 cells assessed as cell growth at 10^-7 M after 48 hrs by SRB assay relative to control; conditions: NCI-H460, 48 h, read-out: Activity
SNB-75 [15] = assay: Cytotoxicity against human SNB75 cells assessed as cell growth at 10^-7 M after 48 hrs by SRB assay relative to control; conditions: SNB-75, 48 h, read-out: Activity
U-251 = assay: Cytotoxicity against human U251 cells assessed as cell growth at 10^-7 M after 48 hrs by SRB assay relative to control; conditions: U-251, 48 h, read-out: Activity
[16] = Cytotoxicity against human HCT15 cells after 48 hrs by SRB assay; conditions: HCT-15, 48 h
MDA-MB-468 = assay: Cytotoxicity against human MDA-MB-468 cells assessed as cell growth at 10^-7 M after 48 hrs by SRB assay relative to control; conditions: MDA-MB-468, 48 h, read-out: Activity
MOLT-4 = assay: Cytotoxicity against human MOLT4 cells assessed as cell growth at 10^-6 M after 48 hrs by SRB assay relative to control; conditions: MOLT-4, 48 h, read-out: Activity
NCI-H226 [17] = assay: Cytotoxicity against human NCI-H226 cells assessed as cell growth at 10^-6 M after 48 hrs by SRB assay relative to control; conditions: NCI-H226, 48 h, read-out: Activity
NCI-H460 [18] = assay: Cytotoxicity against human NCI-H460 cells assessed as cell growth at 10^-6 M after 48 hrs by SRB assay relative to control; conditions: NCI-H460, 48 h, read-out: Activity
COLO 205 [19] = assay: Cytotoxicity against human COLO205 cells assessed as cell growth at 10^-6 M after 48 hrs by SRB assay relative to control; conditions: COLO 205, 48 h, read-out: Activity
[20] = Cytotoxicity against human HCT116 cells assessed as cell growth at 10^-6 M after 48 hrs by SRB assay relative to control; conditions: HCT-116, 48 h, read-out: Activity
SF-539 = assay: Cytotoxicity against human SF539 cells assessed as cell growth at 10^-6 M after 48 hrs by SRB assay relative to control; conditions: SF-539, 48 h, read-out: Activity
SK-MEL-2 [21] = assay: Cytotoxicity against human SK-MEL-2 cells assessed as cell growth at 10^-6 M after 48 hrs by SRB assay relative to control; conditions: SK-MEL-2, 48 h, read-out: Activity
[22] = Cytotoxicity against human UACC62 cells assessed as cell growth at 10^-6 M after 48 hrs by SRB assay relative to control; conditions: UACC-62, 48 h, read-out: Activity
[23] = Cytotoxicity against human OVCAR3 cells assessed as cell growth at 10^-6 M after 48 hrs by SRB assay relative to control; conditions: OVCAR-3, 48 h, read-out: Activity
[24] = Cytotoxicity against human SKOV3 cells assessed as cell growth at 10^-6 M after 48 hrs by SRB assay relative to control; conditions: SK-OV-3, 48 h, read-out: Activity
CAKI-1 [25] = assay: Cytotoxicity against human Caki1 cells assessed as cell growth at 10^-6 M after 48 hrs by SRB assay relative to control; conditions: CAKI-1, 48 h, read-out: Activity

## CC(C)=CCC[C@H](C)c1ccc(C)c2c1OCN(CC1CCNCC1)C2
NCI-H226 [1]
  growth at 100 µM: -84%
COLO 205 [2]
  growth at 100 µM: -89%
SNB-75 [3]
  GI50: 11.9 µM
  LC50: 49.6 µM
  TGI: 24.3 µM
SK-MEL-2 [4]
  GI50: 18.2 µM
  LC50: 69.2 µM
  TGI: 35.5 µM
[5]
  GI50: 15.5 µM
  LC50 (concentration killing 50% of cells): 57.6 µM
  TGI: 29.9 µM
[6]
  GI50: 16.8 µM
  LC50 (lethal concentration, 50% cell kill): 71.8 µM
  TGI: 34.8 µM
ACHN
  GI50: 15.3 µM
  LC50 (concentration killing 50% of cells): 58.9 µM
  TGI: 30 µM
[7]
  growth at 0.01 µM: 93%
HT-29
  growth at 0.01 µM: 102%
[8]
  growth at 100 µM: -92%
[9]
  growth at 100 µM: -73%
A498
  growth at 100 µM: -90%
MCF7
  growth at 100 µM: -95%
MDA-MB-231
  growth at 100 µM: -77%
[10]
  growth at 100 µM: -75%
786-0
  growth at 0.01 µM: 96%
CAKI-1 [11]
  growth at 0.01 µM: 101%
[12]
  growth at 0.01 µM: 95%
[13]
  growth at 0.1 µM: 103%
NCI-H322M
  growth at 0.1 µM: 99%
NCI-H460 [14]
  growth at 0.1 µM: 106%
SNB-75 [15]
  growth at 0.1 µM: 85%
U-251
  growth at 0.1 µM: 101%
[16]
  GI50: 6.51 µM
  TGI: 21.1 µM
[16]; read-out: LC50 (the source's name)
  CC50: 54 µM
MDA-MB-468
  growth at 0.1 µM: 94%
MOLT-4
  growth at 1 µM: 100%
NCI-H226 [17]
  growth at 1 µM: 101%
NCI-H460 [18]
  growth at 1 µM: 113%
COLO 205 [19]
  growth at 1 µM: 101%
[20]
  growth at 1 µM: 104%
SF-539
  growth at 1 µM: 104%
SK-MEL-2 [21]
  growth at 1 µM: 120%
[22]
  growth at 1 µM: 101%
[23]
  growth at 1 µM: 105%
[24]
  growth at 1 µM: 100%
CAKI-1 [25]
  growth at 1 µM: 98%
